According to patent US7566732B2, “Rhodanine compositions for use as antiviral agents” (priority 2003, dated 2009):

Target: EVp28 (Gst-Evp28) ubiquitin ligase (Ectromelia virus, UniProt Q85318)
Test: biochemical

Structure (SMILES) | IC50
O=C1/C(=C\c2ccc(-c3cccc(C(F)(F)F)c3)o2)SC(=S)N1Cc1ccccc1 [Compound 54, (5E)-3-benzyl-2-thioxo-5-({5-[3-(trifluoromethyl)phenyl]-2-furyl}methylene)-1,3-thiazolidin-4-one] | 16 nM
O=C1/C(=C\c2nc3ccccc3[nH]2)SC(=S)N1c1ccc(F)cc1 [Compound 307] | 92 nM
